Laboratory results from patent US10093684B2, “Substituted imidazo[1,2-a]pyrazines as Syk inhibitors” (Gilead Connecticut, Inc., priority 2008, dated 2018).

melting point: > 250 °C
SMILES: CC(C)n1cc(Nc2nc(-c3ccc4cn[nH]c4c3)cn3ccnc23)cn1 [Compound 5, 6-(1H-indazol-6-yl)-N-(1-isopropyl-1H-pyrazol-4-yl)imidazo[1,2-a]pyrazin-8-amine]
